Tests used:
Type in all cases: functional
Streptococcus pyogenes [1] = experiment: Antibacterial activity against erythromycin-resistant Streptococcus pyogenes 2 clinical isolate assessed as bacterial growth inhibition incubated for 20 hrs by CLSI based broth microdilution method
[2] = test system: Staphylococcus epidermidis; experiment: Antibacterial activity against penicillin-resistant Staphylococcus epidermidis clinical isolate assessed as bacterial growth inhibition incubated for 20 hrs by CLSI based broth microdilution method
Staphylococcus aureus [3] = experiment: Antibacterial activity against Staphylococcus aureus clinical isolate assessed as bacterial growth inhibition incubated for 20 hrs by CLSI based broth microdilution method
Staphylococcus aureus [4] = experiment: Antibacterial activity against penicillin-resistant Staphylococcus aureus ATCC31007 assessed as bacterial growth inhibition incubated for 20 hrs by CLSI based broth microdilution method
Staphylococcus aureus [5] = experiment: Antibacterial activity against methicillin-resistant Staphylococcus aureus ATCC43300 assessed as bacterial growth inhibition incubated for 20 hrs by CLSI based broth microdilution method
Klebsiella pneumoniae = experiment: Antibacterial activity against Klebsiella pneumoniae ATCC BAA-1902 assessed as bacterial growth inhibition incubated for 20 hrs by CLSI based broth microdilution method
Acinetobacter baumannii = experiment: Antibacterial activity against Acinetobacter baumannii ATCC19606 assessed as bacterial growth inhibition incubated for 20 hrs by CLSI based broth microdilution method
Escherichia coli [6] = experiment: Antibacterial activity against wild-type Escherichia coli BW25113 assessed as bacterial growth inhibition incubated for 20 hrs by CLSI based broth microdilution method
Escherichia coli [7] = experiment: Antibacterial activity against penicillin-susceptible Escherichia coli ATCC25922 assessed as bacterial growth inhibition incubated for 20 hrs by CLSI based broth microdilution method
Enterococcus faecium [8] = experiment: Antibacterial activity against vancomycin-susceptible Enterococcus faecium ATCC19434 assessed as bacterial growth inhibition incubated for 20 hrs by CLSI based broth microdilution method
Enterococcus faecalis [9] = experiment: Antibacterial activity against vancomycin-susceptible Enterococcus faecalis ATCC29212 assessed as bacterial growth inhibition incubated for 20 hrs by CLSI based broth microdilution method
Streptococcus pyogenes [10] = experiment: Antibacterial activity against erythromycin-susceptible Streptococcus pyogenes 1 assessed as bacterial growth inhibition incubated for 20 hrs by CLSI based broth microdilution method
Staphylococcus aureus [11] = experiment: Antibacterial activity against erythromycin-susceptible Staphylococcus aureus ATCC25923 assessed as bacterial growth inhibition incubated for 20 hrs by CLSI based broth microdilution method
Bacillus pumilus = experiment: Antibacterial activity against penicillin-susceptible Bacillus pumilus CMCC63202 assessed as bacterial growth inhibition incubated for 20 hrs by CLSI based broth microdilution method
Bacillus subtilis = experiment: Antibacterial activity against penicillin-susceptible Bacillus subtilis ATCC9372 assessed as bacterial growth inhibition incubated for 20 hrs by CLSI based broth microdilution method
Enterococcus faecalis [12] = experiment: Antibacterial activity against vancomycin-resistant Enterococcus faecalis ATCC51299 assessed as bacterial growth inhibition incubated for 20 hrs by CLSI based broth microdilution method
Enterococcus faecium [13] = experiment: Antibacterial activity against vancomycin-resistant Enterococcus faecium ATCC51559 assessed as bacterial growth inhibition incubated for 20 hrs by CLSI based broth microdilution method

SMILES	MIC (Streptococcus pyogenes [1])	MIC [2]	MIC (Staphylococcus aureus [3])	MIC (Staphylococcus aureus [4])	MIC (Staphylococcus aureus [5])	MIC (Klebsiella pneumoniae)	MIC (Acinetobacter baumannii)	MIC (Escherichia coli [6])	MIC (Escherichia coli [7])	MIC (Enterococcus faecium [8])	MIC (Enterococcus faecalis [9])	MIC (Streptococcus pyogenes [10])	MIC (Staphylococcus aureus [11])	MIC (Bacillus pumilus)	MIC (Bacillus subtilis)	MIC (Enterococcus faecalis [12])	MIC (Enterococcus faecium [13])
C[n+]1cc(-c2ccccc2)cc(/C=C/c2ccc(Cl)c(Cl)c2)c1-c1ccccc1.[I-]	2 µg/mL	8 µg/mL	2 µg/mL	8 µg/mL	2 µg/mL	> 64 µg/mL	2 µg/mL	64 µg/mL	64 µg/mL	8 µg/mL	8 µg/mL	2 µg/mL	0.5 µg/mL	4 µg/mL	0.5 µg/mL	8 µg/mL	8 µg/mL
CCCCOc1ccc(/C=C/c2cc(-c3ccccc3)c[n+](C)c2-c2ccccc2)cc1.[I-]	2 µg/mL	2 µg/mL	1 µg/mL	16 µg/mL	1 µg/mL	16 µg/mL	4 µg/mL	8 µg/mL	8 µg/mL	2 µg/mL	4 µg/mL	2 µg/mL	0.5 µg/mL	1 µg/mL	1 µg/mL	4 µg/mL	4 µg/mL
COc1cc(/C=C/c2cc(-c3ccccc3)c[n+](C)c2-c2ccccc2)cc(OC)c1OC.[I-]	16 µg/mL	> 64 µg/mL	16 µg/mL	> 64 µg/mL	64 µg/mL	> 64 µg/mL	> 64 µg/mL	> 64 µg/mL	> 64 µg/mL	> 64 µg/mL	> 64 µg/mL	16 µg/mL	> 64 µg/mL	64 µg/mL	16 µg/mL	> 64 µg/mL	> 64 µg/mL
CCCCCOc1ccc(/C=C/c2cc(-c3ccccc3)c[n+](C)c2-c2ccccc2)cc1.[I-]	2 µg/mL	1 µg/mL	1 µg/mL	1 µg/mL	1 µg/mL	8 µg/mL	2 µg/mL	4 µg/mL	4 µg/mL	2 µg/mL	2 µg/mL	2 µg/mL	0.25 µg/mL	1 µg/mL	0.5 µg/mL	2 µg/mL	2 µg/mL
C[n+]1cc(-c2ccccc2)c(/C=C/c2ccc(N3CCCCC3)cc2)cc1-c1ccc2ccccc2c1.[I-]	2 µg/mL	2 µg/mL	0.5 µg/mL	2 µg/mL	1 µg/mL	16 µg/mL	2 µg/mL	4 µg/mL	64 µg/mL	1 µg/mL	1 µg/mL	2 µg/mL	0.5 µg/mL	0.5 µg/mL	1 µg/mL	2 µg/mL	2 µg/mL
COc1ccc(/C=C/c2cc(-c3ccccc3)c[n+](C)c2-c2ccccc2)cc1.[I-]	8 µg/mL	2 µg/mL	4 µg/mL	64 µg/mL	16 µg/mL	> 64 µg/mL	32 µg/mL	> 64 µg/mL	> 64 µg/mL	64 µg/mL	32 µg/mL	4 µg/mL	2 µg/mL	32 µg/mL	8 µg/mL	64 µg/mL	64 µg/mL
C[n+]1cc(-c2ccccc2)c(/C=C/c2ccc(F)cc2)cc1-c1ccc(C(C)(C)C)cc1.[I-]	4 µg/mL	2 µg/mL	1 µg/mL	1 µg/mL	1 µg/mL	8 µg/mL	4 µg/mL	8 µg/mL	8 µg/mL	2 µg/mL	2 µg/mL	2 µg/mL	1 µg/mL	1 µg/mL	1 µg/mL	2 µg/mL	2 µg/mL
CCCCCOc1ccc(/C=C/c2cc(-c3ccccc3)[n+](C)cc2-c2ccccc2)cc1.[I-]	2 µg/mL	1 µg/mL	0.5 µg/mL	1 µg/mL	1 µg/mL	4 µg/mL	2 µg/mL	2 µg/mL	4 µg/mL	0.5 µg/mL	2 µg/mL	2 µg/mL	0.5 µg/mL	0.5 µg/mL	0.5 µg/mL	1 µg/mL	1 µg/mL
CCCOc1ccc(/C=C/c2cc(-c3ccc(C(C)(C)C)cc3)[n+](C)cc2-c2ccccc2)cc1.[I-]	2 µg/mL	1 µg/mL	0.5 µg/mL	1 µg/mL	0.5 µg/mL	8 µg/mL	2 µg/mL	8 µg/mL	4 µg/mL	1 µg/mL	2 µg/mL	2 µg/mL	0.125 µg/mL	1 µg/mL	0.125 µg/mL	1 µg/mL	1 µg/mL
C[n+]1cc(-c2ccccc2)c(/C=C/c2ccc(F)cc2)cc1-c1ccccc1.[I-]	2 µg/mL	2 µg/mL	1 µg/mL	4 µg/mL	1 µg/mL	32 µg/mL	8 µg/mL	8 µg/mL	8 µg/mL	4 µg/mL	4 µg/mL	2 µg/mL	0.125 µg/mL	2 µg/mL	0.5 µg/mL	2 µg/mL	8 µg/mL
CCc1ccc(/C=C/c2cc(-c3ccccc3)c[n+](C)c2-c2ccccc2)cc1.[I-]	8 µg/mL	16 µg/mL	2 µg/mL	4 µg/mL	8 µg/mL	16 µg/mL	32 µg/mL	> 64 µg/mL	> 64 µg/mL	16 µg/mL	16 µg/mL	4 µg/mL	1 µg/mL	8 µg/mL	4 µg/mL	16 µg/mL	16 µg/mL
C[n+]1cc(-c2ccccc2)c(/C=C/c2ccc(N3CCCC3)cc2)cc1-c1ccc2ccccc2c1.[I-]	1 µg/mL	2 µg/mL	0.5 µg/mL	1 µg/mL	0.5 µg/mL	16 µg/mL	1 µg/mL	4 µg/mL	64 µg/mL	1 µg/mL	2 µg/mL	0.5 µg/mL	0.5 µg/mL	1 µg/mL	1 µg/mL	2 µg/mL	2 µg/mL
CCCCCCOc1ccc(/C=C/c2cc(-c3ccccc3)[n+](C)cc2-c2ccccc2)cc1.[I-]	2 µg/mL	2 µg/mL	0.5 µg/mL	2 µg/mL	2 µg/mL	8 µg/mL	4 µg/mL	4 µg/mL	4 µg/mL	2 µg/mL	2 µg/mL	2 µg/mL	0.5 µg/mL	0.5 µg/mL	0.5 µg/mL	2 µg/mL	1 µg/mL
C[n+]1cc(-c2ccccc2)cc(/C=C/c2ccc(C(C)(C)C)cc2)c1-c1ccccc1.[I-]	2 µg/mL	2 µg/mL	2 µg/mL	4 µg/mL	1 µg/mL	32 µg/mL	4 µg/mL	16 µg/mL	16 µg/mL	2 µg/mL	4 µg/mL	8 µg/mL	0.25 µg/mL	2 µg/mL	0.5 µg/mL	1 µg/mL	2 µg/mL
C[n+]1cc(-c2ccccc2)c(/C=C/c2ccc(Cl)c(Cl)c2)cc1-c1ccc(C(C)(C)C)cc1.[I-]	4 µg/mL	2 µg/mL	1 µg/mL	2 µg/mL	1 µg/mL	> 64 µg/mL	4 µg/mL	8 µg/mL	> 64 µg/mL	1 µg/mL	2 µg/mL	8 µg/mL	2 µg/mL	2 µg/mL	2 µg/mL	2 µg/mL	1 µg/mL
C[n+]1cc(-c2ccccc2)c(/C=C/c2ccc(N)cc2)cc1-c1ccccc1.[I-]	16 µg/mL	32 µg/mL	16 µg/mL	64 µg/mL	16 µg/mL	> 64 µg/mL	32 µg/mL	> 64 µg/mL	> 64 µg/mL	> 64 µg/mL	64 µg/mL	4 µg/mL	2 µg/mL	16 µg/mL	4 µg/mL	> 64 µg/mL	64 µg/mL
C[n+]1cc(-c2ccccc2)cc(/C=C/c2ccc(C(F)(F)F)cc2)c1-c1ccccc1.[I-]	2 µg/mL	8 µg/mL	2 µg/mL	16 µg/mL	4 µg/mL	> 64 µg/mL	16 µg/mL	> 64 µg/mL	> 64 µg/mL	16 µg/mL	8 µg/mL	4 µg/mL	1 µg/mL	8 µg/mL	2 µg/mL	16 µg/mL	8 µg/mL
